From paper PMC12188386, “Selective CBP/EP300 Bromodomain Inhibitors: Novel Epigenetic Tools to Counter TNF-α-Driven Inflammation” (JACS Au, 2025)

Legend:
U251 = experiment: NCI-60 one-dose screen; assay type: cell-based, human; details: 10 µM, 48 h, CNS Cancer
Method: (§1) Adapted from NCI-60 Screening Methodology, one-dose screen:20 Briefly, human tumor cell lines, grown in RPMI 1640 containing 5% FBS and 2 mM L-glutamine, were plated in 96 well plates at densities ranging from 5,000 to 40,000 cells/well 24 h prior to addition of test compounds (here 10 μM 2). 400x solutions of test compounds were prepared in DMSO, then diluted to 2x in medium supplemented with 50 μg/mL gentamicin. 100 μl of this 2x stock was added to cells previously plated in 100 μl medium, resulting in the desired final compound concentration. Cells were fixed in situ with cold TCA: untreated cells at the time of compound addition (Tz) and treated cells 48 h after addition of compound (Ti). Cells were washed, then su f rh damine s uti n μ at . w/v in acetic acid was added to each well and incubated for 10 minutes at room temperature. After washing again, the plates were air dried and bound stain solubilized with 10 mM Trizma base before absorbance was […]
(§2) Percentage growth (%Growth) was calculated as follows:
(§3) when Ti ≥ Tz, %Growth = Ti − Tz x 100 where Ti = absorbance from compound treated cells, Tz = absorbance from untreated cells at time zero, and C = absorbance from control (DMSO) treated cells. […]

SR = experiment: NCI-60 one-dose screen; assay type: cell-based, human; details: 10 µM, 48 h, Leukemia
Method: as §1, §2, §3

SK-MEL-28 = experiment: NCI-60 one-dose screen; assay type: cell-based, human; details: 10 µM, 48 h, Melanoma
Method: as §1, §2, §3

A549/ATCC = experiment: NCI-60 one-dose screen; assay type: cell-based, human; details: 10 µM, 48 h, Non-Small Cell Lung Cancer
Method: as §1, §2, §3

BT-549 = experiment: NCI-60 one-dose screen; assay type: cell-based, human; details: 10 µM, 48 h, Breast Cancer
Method: as §1, §2, §3

M14 = experiment: NCI-60 one-dose screen; assay type: cell-based, human; details: 10 µM, 48 h, Melanoma
Method: as §1, §2, §3

SNB-19 = experiment: NCI-60 one-dose screen; assay type: cell-based, human; details: 10 µM, 48 h, CNS Cancer
Method: as §1, §2, §3

OVCAR-3 = experiment: NCI-60 one-dose screen; assay type: cell-based, human; details: 10 µM, 48 h, Ovarian Cancer
Method: as §1, §2, §3

LOX IMVI = experiment: NCI-60 one-dose screen; assay type: cell-based, human; details: 10 µM, 48 h, Melanoma
Method: as §1, §2, §3

HT29 = experiment: NCI-60 one-dose screen; assay type: cell-based, human; details: 10 µM, 48 h, Colon Cancer
Method: as §1, §2, §3

HOP-62 = experiment: NCI-60 one-dose screen; assay type: cell-based, human; details: 10 µM, 48 h, Non-Small Cell Lung Cancer
Method: as §1, §2, §3

NCI-H322M = experiment: NCI-60 one-dose screen; assay type: cell-based, human; details: 10 µM, 48 h, Non-Small Cell Lung Cancer
Method: as §1, §2, §3

K-562 = experiment: NCI-60 one-dose screen; assay type: cell-based, human; details: 10 µM, 48 h, Leukemia
Method: as §1, §2, §3

UACC-257 = experiment: NCI-60 one-dose screen; assay type: cell-based, human; details: 10 µM, 48 h, Melanoma
Method: as §1, §2, §3

SK-OV-3 = experiment: NCI-60 one-dose screen; assay type: cell-based, human; details: 10 µM, 48 h, Ovarian Cancer
Method: as §1, §2, §3

panel of 32 bromodomains = experiment: bromoMAX BROMOscan panel; assay type: binding; details: 1 µM
Method: was used as the calibration curve. To obtain saturated solutions of the compounds of interest, in duplicates 4.4 µL of a 10 or 5 mM stock in DMSO was added to 436 µL Buffer (PBS, pH = 7.4), to give a final concentration of 100 or 50 µM. Samples were incubated on a shaker (500 rpm) at 37°C for 90 minutes and then filtered (Millex-GV 13 mm, 0.22 µm). 304 µL of the filtrate was mixed with 76 µL of acetonitrile on a dilution plate, from which 350 µL was transferred to a UV-plate and UV-absorption was read using a SpectraMax M5 (Molecular devices). The absorbance was blank-corrected and compared to the calibration curve to […]
solubility. […]
lower solubility (2) compounds respectively in a 12.5 w/v% CAPTISOL® solution in water. […] Based on the known density of 12.5 % CAPTISOL® solution (d = 1.05755 g/mL at 25 °C), the precise weight of the resulting solution and so the required amount of water by weight was calculated. […] In duplicates, aliquots of the filtrates were taken and diluted with blank 12.5 % CAPTISOL® water solution in either a 1:14 (higher sol. compounds) or 1:7 (lower sol. compounds) ratio, 350 µL was transferred to a 96-Well Plate (Greiner, UV-star) then UV absorption (240-400 nm, 10 nm steps) was measured using a SpectraMax M5 (Molecular devices). […] The calculated concentrations are available in Table S4. […]
The bromodomain concentration in the eluates was measured by qPCR. […]

| Structure (SMILES) | %Growth (U251) [%] | %Growth (SR) [%] | %Growth (SK-MEL-28) [%] | %Growth (A549/ATCC) [%] | %Growth (BT-549) [%] | %Growth (M14) [%] | %Growth (SNB-19) [%] | %Growth (OVCAR-3) [%] | %Growth (LOX IMVI) [%] | %Growth (HT29) [%] | %Growth (HOP-62) [%] | %Growth (NCI-H322M) [%] | %Growth (K-562) [%] | %Growth (UACC-257) [%] | %Growth (SK-OV-3) [%] | selectivity over BRD4(1) and a broader panel of BRD-containing proteins (panel of 32 bromodomains) |
| --- | --- | --- | --- | --- | --- | --- | --- | --- | --- | --- | --- | --- | --- | --- | --- | --- |
| Cc1cc2c(NC(=O)c3cc(NC(=O)c4ccco4)cc(-c4ccn(C)n4)c3)cccc2nn1 [Compound 2] | 61 | 19 | 68 | 61 | 33 | 25 | 66 | 23 | 34 | 21 | 67 | 86 | 29 | 66 | 86 | highly selective |
| Cc1cc2c(NC(=O)c3cc(NC(=O)[C@H]4CCCO4)cc(-c4ccn(C)n4)c3)cccc2nn1 [Compound 5] |  |  |  |  |  |  |  |  |  |  |  |  |  |  |  | highly selective |
